Laboratory results from patent US20140113869A1, “Gbetagamma BINDING SITE ON THE PIK3CB GENE PRODUCT AND METHODS OF USE” (Albert Einstein College of Medicine of Yeshiva University, priority 2011, published 2014).
Ends that are not written are not given here. * marks the point of attachment. Myristoyl = CCCCCCCCCCCCCC(=O)*

Assays:
[1] = system: p85/p110β dimers activated by Gβγ; assay: In vitro activation of p85/p110β dimers by Gβγ (lipid kinase activity); assay type: biochemical; details: peptide 5-fold in excess of Gβγ; FIG. 5
Experimental: FIG. 5. Percent stimulation of p85/p110β dimers incubated without or with Gβγ in the absence or presence of 5-1Old excess peptide. Pep=p110β peptide. Scram=scrambled peptide control.
(§1) FIG. 9A-9D. Peptide inhibitors of Gβγ -mediated p110β/p85 activation are specific for p85/p110β. (9A) Myristoylated p110β peptides or SIGK peptide were preincubated with biotinylated Gβγ or 5 min, followed by addition of phage particles displaying the SIGK peptide, After a 1 h incubation at room temperature, Anti-M-13 phase monoclonal antibody was added followed by addition of Streptavidin coated Alphascreen donor beads and protein A coated Alphascreen acceptor beads. After a 2 h incubation, the Alphascreen signal was read on a Perkin Elmer Envision Multilabel Plate reader. […] Bound proteins were analyzed by western blot. […] The cells were fixed and the number of GFP punctae per cell was counted using a Nikon Eclipse 400 microscope with 60× 1.4 N.A. optics. […]

[2] = system: Gβγ activation of Akt (pT308-Akt) in NIH3T3 cells; assay: pT308-Akt blotting in NIH3T3 cells transfected with Gβγ; assay type: cell-based; details: for Gβγ activation of Akt (pT308-Akt): myristoylated vs TAT-tagged vs unmodified peptide, FIG. 6B
Experimental: FIG. 6A-6B. (6A) NIH3T3 cells were transfected without or with Gβγ and incubated with scrambled (control) or p110β peptide. pT308-Akt was measured by blotting. (6B) Cell transfected as above were incubated with myristoylated peptide, TAT-tagged peptide, or unmodified peptide. pT308-Akt was measured by blotting.
(§2) To test the possibility that small molecules targeting the p110β-Gβγ interface could be used as therapeutics, a peptide was designed derived from the Gβγ-binding loop in p110β. having the sequence […] (SEQ ID NO:6) a scrambled version of the peptide serves as a negative control. […] The test whether the peptide could be efficacious in vivo, we created a cell permeable myristylated version of the peptide. The peptide blocked activation of Akt in cells transfected with Gβγ (FIG. 6A); the peptide's inhibitory activity required its entry into the cells, since both myristoylated and TAT-tagged peptide inhibited Gβγ activation of Akt, whereas unlabeled peptide had no effect (FIG. 6B). The myristoylated peptide blocked the formation of colonies in soft agar (FIG. 7A) and the formation of foci (FIG. 7B), both measures of transformation, in NIH3T3 cells transfected with p85/p110β.

[3] = system: NIH3T3 cells transfected with p85/p110β; assay: Colony formation in soft agar; assay type: cell-based; details: 30 μM peptide; FIG. 7A
Experimental: (§3) FIG. 7A-7B. (7A). NIH3T3 cells were transfected without or with p85/p110β and incubated without or with 30 μM p110β peptide or scrambled control peptide. Colony formation in soft agar by cells transfected and treated with peptide as above. (7B). Foci were measured after 2 weeks.
as §2

[4] = system: NIH3T3 cells transfected with p85/p110β; assay: Foci formation; assay type: cell-based; details: 30 μM peptide; foci measured after 2 weeks; FIG. 7B
Experimental: as §3, §2

[5] = system: NIH3T3 cells transfected with p110β/p85; assay: Wound healing (wound closure) migration assay; assay type: cell-based; details: 30 μM peptide; wound closure after 24h; FIG. 8
Experimental: FIG. 8. NIH3T3 cells were transfected without or with p85/p110β. Confluent monolayers were scratched with a pipette tip, and wound closure after 24h was measured in the absence or presence of 30 μM p110β peptide or scrambled control peptide
as §2

p110β = p110β expression in peptide-treated transfected cells; assay type: cell-based; details: FIG. 7
Experimental: as §3

Gβγ = assay: Alphascreen competition with phage-displayed SIGK peptide for binding to biotinylated Gβγ; details: FIG. 9A
Experimental: as §1

Class IB PI3K p101/p110γ = assay: Gβγ-dependent activation of p101/p110γ, pT308-Akt western blot in HEK293E cells; assay type: cell-based; details: FIG. 9C
Experimental: as §1

[6] = system: recombinant adenylyl cyclase; assay: Synergistic activation of adenylyl cyclase by Gβγ and Gαs in Sf9 cell membranes; assay type: biochemical; details: 30 μM peptide; 20 nM Gsα, 20 nM Gβγ; FIG. 9D
p110β binding to Rab5 = target: T1, p110β binding to Rab5 (Homo sapiens, UniProt P42338); assay: p110β binding to immobilized GST-Rab5 (pull-down from HEK293T lysates); details: FIG. 9E
T1 construct: expressed in transfected cells; host or cells: HEK293T (p85α and p110β)
T1 sequence (P42338 whole entry): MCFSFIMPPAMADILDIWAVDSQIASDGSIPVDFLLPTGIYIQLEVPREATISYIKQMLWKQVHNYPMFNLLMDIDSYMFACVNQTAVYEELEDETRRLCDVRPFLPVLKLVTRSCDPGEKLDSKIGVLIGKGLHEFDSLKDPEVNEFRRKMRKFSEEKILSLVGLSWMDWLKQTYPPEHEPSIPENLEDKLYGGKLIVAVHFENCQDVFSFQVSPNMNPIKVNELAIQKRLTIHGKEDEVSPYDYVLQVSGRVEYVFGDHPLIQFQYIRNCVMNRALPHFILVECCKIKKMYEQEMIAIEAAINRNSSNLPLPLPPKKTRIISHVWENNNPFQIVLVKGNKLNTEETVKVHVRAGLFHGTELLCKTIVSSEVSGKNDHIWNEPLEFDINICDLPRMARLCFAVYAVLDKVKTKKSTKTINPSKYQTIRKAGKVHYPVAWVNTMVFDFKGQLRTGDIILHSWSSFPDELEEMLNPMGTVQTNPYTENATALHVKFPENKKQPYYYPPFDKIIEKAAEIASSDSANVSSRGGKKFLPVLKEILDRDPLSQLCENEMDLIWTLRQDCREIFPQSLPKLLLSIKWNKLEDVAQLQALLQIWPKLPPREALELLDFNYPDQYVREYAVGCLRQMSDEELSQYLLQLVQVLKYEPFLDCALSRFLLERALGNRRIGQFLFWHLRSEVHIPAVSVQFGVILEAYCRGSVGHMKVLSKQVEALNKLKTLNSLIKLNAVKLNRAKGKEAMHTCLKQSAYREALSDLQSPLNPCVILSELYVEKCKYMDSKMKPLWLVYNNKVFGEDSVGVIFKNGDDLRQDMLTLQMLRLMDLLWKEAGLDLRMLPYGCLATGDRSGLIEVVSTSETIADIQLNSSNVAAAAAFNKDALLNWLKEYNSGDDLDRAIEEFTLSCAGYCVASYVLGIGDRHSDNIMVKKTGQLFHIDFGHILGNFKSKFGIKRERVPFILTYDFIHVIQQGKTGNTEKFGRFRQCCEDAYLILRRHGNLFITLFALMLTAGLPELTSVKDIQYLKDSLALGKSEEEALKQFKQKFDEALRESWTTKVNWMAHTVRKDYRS
Experimental: as §1

[7] = system: HEK293A cells expressing GFP-LC3; assay: p110β-dependent induction of autophagy, GFP-LC3 punctae in HEK293A cells; assay type: cell-based; details: PBS containing 100 nM rapamycin, 2 h; FIG. 9F
Experimental: as §1

[8] = system: PC3 prostate cancer cells; assay: PC-3 cell proliferation, MTS assay; assay type: cell-based; details: 30 μM peptide; FIG. 10A
Experimental: (§4) FIG. 10A-10C. Inhibition of prostate cancer cell proliferation and chemotaxis: (A) Proliferation of PC-3 cells was measured by the MTS assay in the absence or presence of 30 μM myristoylated p110β-derived peptide or scrambled peptide. (B) Proliferation assays were performed on two PTEN-null endometrial cancer cell lines (AN3CA and RL95-2) and one PTEN positive endometrial cell line (KLE) grown in the absence or presence of myristoylated p110β-derived peptide or scrambled peptide. (C) PC-3 cells chemotaxis toward 10% […] in the absence or presence of 20 μM p110β-derived peptide or scrambled peptide was measured in Boyden chambers.
(§5) Finally, the peptide was evaluated for effects on the growth of PC3 prostate cancer cells, which are known to require p110β for growth. […] Importantly, published studies have shown that kinase-dead p110β can rescue cell growth in cell lines where proliferation is inhibited by p110β knockout. Since currently available p110β inhibitors target the active site of p110β and act by inhibiting its kinase activity, they would not be expected to suppress the growth of cells that depend on p110β for growth. In contrast, the p110β peptide described here inhibits p110β by a distinct mechanism, and is likely to be more efficacious at suppressing the growth of p110β-dependent prostate cancer cells than active site inhibitors.

PC3 cells = assay: PC-3 chemotaxis in Boyden chambers; assay type: cell-based; details: 20 μM peptide; toward 10% PBS; FIG. 10C
Experimental: as §4, §5

KAAEIASSDSANVSSRGGKKFLPV (SEQ ID NO:6) [peptide]
activation of p110β by Gβγ [1]: markedly reduces | Gβγ activation of Akt (pT308-Akt) [2]: no effect

myristoylated peptide: cell permeable myristylated version of the p110β peptide KAAEIASSDSANVSSRGGKKFLPV (SEQ ID NO:6) (Myristoyl-KAAEIASSDSANVSSRGGKKFLPV)
activation of Akt in cells transfected with Gβγ (pT308-Akt) ([2]; NIH3T3 cells, FIG. 6A): blocked | Gβγ activation of Akt (pT308-Akt) [2]: inhibited | formation of colonies in soft agar [3]: blocked | formation of foci [4]: blocked | enhanced migration in a wound healing assay [5]: blocked | p110β expression (p110β): did not reduce | competition with the binding to Gβγ of SIGK peptide (Gβγ): did not compete | Gβγ-dependent activation of the Class IB PI3K p101/p110γ (Class IB PI3K p101/p110γ): no effect | synergistic activation of adenylyl cyclase by Gβγ and Gαs [6]: no effect | p110β binding to Rab5 (p110β binding to Rab5): no effect | p110β-dependent induction of autophagy [7]: no effect | PC3 cells number (growth) [8]: caused a decrease | PC3 cells chemotaxis toward serum (PC3 cells): inhibited
